Source: patent US8901168B2 (priority 2007, dated 2014)

System: anti-TT antibodies
Design: species or system BALB/c mice
Details: mouse, in vivo

| Compound | anti-TT Ig titres | anti-TT antibody titres after the third vaccination vs α-T treated mice | anti-TT antibody titres after the third vaccination, ranking of groups | antibody titres after the third immunisation as compared to first immunisation |
| --- | --- | --- | --- | --- |
| Cc1c(C)c2c(c(C)c1O)CC[C@@](C)(CCC[C@H](C)CCC[C@H](C)CCCC(C)C)O2 [α-T, α-tocopherol] | significantly (P<0.05) enhanced |  |  |  |
| CC(C)=CCC/C(C)=C/CC/C(C)=C/CC[C@]1(C)CCc2cc(O)cc(C)c2O1 [δ-T3, δ-tocotrienol] | significantly (P<0.05) enhanced | significantly (P<0.01) higher | highest | highly significant (P<0.01) antibody titres |
